A short description of the series: Stability of the lactone form of CT-17 free and in liposomes in PBS, plasma, whole blood. The format is physicochemical, human. On the procedure:
To determine the ability of CT-17 to be retained in liposomal preparations,the agent was loaded into liposomes using the active loading methodology as described previously (U.S. Pat. No. 5,192,549). Two types of liposomes were used: 1) non-stealth liposomes and 2) stealth liposomes. The liposome preparations were then incubated in various biological fluids to determine drug retention in the particle. In these experiments the lipid distearoylphosphatidylcholine (DSPC) was obtained from Avanti Polar Lipids (Birmingham, AL) and cholesterol was from Nutritional Biochemicals Corp., Cleveland, Ohio. […] Solvent was evaporated at 55-60° C. on rotary evaporator for 15 min to form the lipid film. The residual solvent was then removed under high vacuum at room temperature overnight. The lipid film was hydrated using 5 ml of 0.1 M ammonium sulfate. MLVs were formed by shaking and occasional vortexing at 55-60° C. LUVs were formed by passing the liposomal suspension through two 100 nm stacked polycarbonate filters under 20 psi pressure of nitrogen using 11 passes at 55-60° C. (Liposo-Fast-Pneumatic from AVESTIN, Toronto, Canada).
FIG. 7 is a graphical comparison of the stability of the lactone form of the camptothecin drug CT-17 as a function of time. […]

One compound from patent publication US6291676A, “Water-soluble derivatives of camptothecin/homocamptothecin” (priority 2000, dated 2001) can be followed below.

In the case of `CC[C@@]1(O)C(=O)OCc2c1cc1n(c2=O)Cc2c-1nc1ccccc1c2CNN1CCN(C)CC1` [CT-17, 7-[N-(4-methyl-1-piperazino)aminomethyl]-(20S)-camptothecin], the “hydrolysis of free drug to inactive carboxylate” value is “high rate and extensive amount of hydrolysis”.
